# Results reported in article PMC11084348, “Characterization of Phenolic Compounds in Extra Virgin Olive Oil from Granada (Spain) and Evaluation of Its Neuroprotective Action” (International Journal of Molecular Sciences, 2024).
# Columns and labels:
# [1] = molecular target: T1, acetylcholinesterase from Electrophorus electricus (Electrophorus electricus, UniProt O42275); experiment: AChE inhibition assay (Ellman, spectrophotometric); assay type: biochemical; conditions: for IC50: 5 concentrations of standard, linear regression of dose-response curve
# T1 construct: purchased Merck (Madrid, Spain)
# T1 sequence (O42275 24-633): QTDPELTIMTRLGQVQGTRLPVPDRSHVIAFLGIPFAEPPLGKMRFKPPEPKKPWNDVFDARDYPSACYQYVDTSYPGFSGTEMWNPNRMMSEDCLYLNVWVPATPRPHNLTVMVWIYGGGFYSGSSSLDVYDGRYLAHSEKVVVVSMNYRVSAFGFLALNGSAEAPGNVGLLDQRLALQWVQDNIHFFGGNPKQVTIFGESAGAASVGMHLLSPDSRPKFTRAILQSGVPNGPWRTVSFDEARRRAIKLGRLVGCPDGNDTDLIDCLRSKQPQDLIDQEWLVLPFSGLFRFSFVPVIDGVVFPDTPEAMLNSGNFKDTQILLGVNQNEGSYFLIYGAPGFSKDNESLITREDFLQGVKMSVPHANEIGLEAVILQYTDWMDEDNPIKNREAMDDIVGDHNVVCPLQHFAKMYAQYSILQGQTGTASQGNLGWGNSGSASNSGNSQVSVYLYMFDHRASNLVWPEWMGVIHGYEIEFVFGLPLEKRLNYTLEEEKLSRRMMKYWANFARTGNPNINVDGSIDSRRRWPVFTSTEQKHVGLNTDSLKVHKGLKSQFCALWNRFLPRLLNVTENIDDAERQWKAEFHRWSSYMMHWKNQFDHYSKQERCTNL
# Description: For the COX-2 assay, a COX-2 Inhibitor Screening Kit from Merck (Madrid, Spain) was purchased. For the analysis of AChE inhibition, acetylcholinesterase from Electrophorus electricus (lyophilized powder, 500 U), Base Trizma® (99.9% purity), chloridric acid (37%), Ellman Reactive (5,5′-dithiobis-(2-nitrobenzoic) acid, DTNB, 98% purity), acetylthiocholine iodide (≥98% purity), and physostigmine salicylate were purchased from Merck (Madrid, Spain). In both assays, a spectrophotometer from BioTek Synergy from Agilent Technologies (Santa Clara, CA, USA) was used.
# AChE inhibitory activity was measured using a spectrophotometric assay described by Ellman et al. with slight modifications. First, in a 96-well plate, the AChE enzyme (10 mU mL^−1) (dissolved in 50 mM Tris-HCl buffer, pH 8.0) was incubated with the DTNB (150 μM) and 12 μL aliquots of the corresponding EVOO extracts in a final reaction volume of 250 μL. In addition, the inhibition control (physostigmine), the standards Ol, Lut, and Hyty, and the positive control of AChE activity (substituting the extracts/standards by the solvent of the extracts: ethanol:water (1:1, v/v) were tested. After 15 min of incubation at 30 °C, the substrate (acetylthiocholine iodide 150 μM, ATCh) was added, and AChE activity was determined by measuring the increase in absorbance reading at 405 nm for 15 min at 30 °C in a spectrophotometer (BioTek Synergy, Agilent Technologies, Santa Clara, CA, USA).
# The AChE inhibitory activity of the EVOO extracts was expressed as a percentage of inhibition with respect to the positive activity control, indicating the average value obtained by analyzing the 3 extraction replicates obtained from each EVOO extract and analyzing them in duplicate. IC50, the concentration of a standard bioactive compound capable of inhibiting 50% of AChE activity, was determined by measuring 5 different concentrations of the standard compound in the reaction medium and interpolating in the linear regression of the dosis-response curve.
# COX-2 = molecular target: T2, COX-2 (Homo sapiens, UniProt P35354); experiment: biochemical; conditions: 5 concentrations of standard, linear regression of dose-response curve
# T2 construct: purchased Merck (Madrid, Spain)
# T2 sequence (P35354 18-604): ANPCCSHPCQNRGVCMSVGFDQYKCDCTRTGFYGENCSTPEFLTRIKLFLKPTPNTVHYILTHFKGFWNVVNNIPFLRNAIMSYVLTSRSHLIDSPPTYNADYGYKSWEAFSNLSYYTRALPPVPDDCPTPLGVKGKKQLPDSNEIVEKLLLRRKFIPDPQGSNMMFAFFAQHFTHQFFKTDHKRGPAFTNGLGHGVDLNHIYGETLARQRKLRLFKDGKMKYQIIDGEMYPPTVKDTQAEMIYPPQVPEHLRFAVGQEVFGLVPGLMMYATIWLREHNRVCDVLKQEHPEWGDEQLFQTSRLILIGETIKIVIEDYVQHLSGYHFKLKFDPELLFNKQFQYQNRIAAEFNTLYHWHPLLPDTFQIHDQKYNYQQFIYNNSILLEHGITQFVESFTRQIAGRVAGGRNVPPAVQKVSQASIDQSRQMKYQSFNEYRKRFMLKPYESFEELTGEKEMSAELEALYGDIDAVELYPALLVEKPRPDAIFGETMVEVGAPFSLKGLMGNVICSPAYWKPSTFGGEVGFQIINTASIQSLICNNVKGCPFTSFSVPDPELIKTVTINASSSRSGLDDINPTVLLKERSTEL
# Experimental: For the COX-2 assay, a COX-2 Inhibitor Screening Kit from Merck (Madrid, Spain) was purchased. […] In both assays, a spectrophotometer from BioTek Synergy from Agilent Technologies (Santa Clara, CA, USA) was used.
# The COX-2 assay was performed using the COX fluorescent inhibitor assay kit with slight modifications and measured spectrophotometrically (BioTek Synergy, Agilent Technologies, Santa Clara, CA, USA). EVOO extracts were diluted (1/200) in ethanol:water (1:1, v/v). Briefly, the assay was carried out in a 96-well plate, in which 10 μL of diluted EVOO extracts and 80 μL of the reaction mix (containing the cofactor, the probe, and the COX-2 enzyme) were added. […] EVOO extracts were analyzed in duplicate.
Structure (SMILES),IC50 [1],IC50 (COX-2),inhibition at 0.025 µM ([1]; 0.025 µM of physostigmin in 250 μL of medium reaction containing 2.5 mU of AChE)
"O=c1cc(-c2ccc(O)c(O)c2)oc2cc(O)cc(O)c12 [Lut, luteolin]",145 µM,–,–
"OCCc1ccc(O)c(O)c1 [Hyty, hydroxytyrosol]",328 µM,10.8 µM,–
"CNC(=O)Oc1ccc2c(c1)[C@]1(C)CCN(C)[C@@H]1N2C [Physostigmin, physostigmine salicylate]",–,–,48.5 ± 1.69%
"C/C=C1/[C@H](O[C@@H]2O[C@H](CO)[C@@H](O)[C@H](O)[C@H]2O)OC=C(C(=O)OC)[C@H]1CC(=O)OCCc1ccc(O)c(O)c1 [Ol, oleuropein]",417 µM,9.65 µM,–
